Laboratory results published in PMC2263054, “Functional evolution of the vitamin D and pregnane X receptors” (BMC Evolutionary Biology, 2007).
Counter-ions that a name gives are not always drawn. Like-named read-outs stand apart in the source and are kept apart here.

How the values were obtained:
Format in all cases: cell-based
[1] = target: T1, Zebrafish VDR (Danio rerio, UniProt Q9PTN2); test: luciferase reporter transactivation assay in HepG2-NTCP cells, GAL4/zfVDR LBD chimera with tk-UAS-Luc; settings: screening for activators, at least three concentrations of each drug
T1 sequence (Q9PTN2 121-453): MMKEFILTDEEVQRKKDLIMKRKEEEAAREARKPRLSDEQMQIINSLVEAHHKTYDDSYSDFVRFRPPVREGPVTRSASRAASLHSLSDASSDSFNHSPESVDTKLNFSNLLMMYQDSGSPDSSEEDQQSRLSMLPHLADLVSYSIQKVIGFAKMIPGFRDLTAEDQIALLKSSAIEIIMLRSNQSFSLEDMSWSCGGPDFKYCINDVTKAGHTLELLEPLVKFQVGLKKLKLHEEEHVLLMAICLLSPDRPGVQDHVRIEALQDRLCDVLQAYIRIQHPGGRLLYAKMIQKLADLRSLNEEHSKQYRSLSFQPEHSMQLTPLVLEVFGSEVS

[2] = target: T2, Sea lamprey VDR (Petromyzon marinus, UniProt Q7ZZY9)
T2 sequence (Q7ZZY9 92-406): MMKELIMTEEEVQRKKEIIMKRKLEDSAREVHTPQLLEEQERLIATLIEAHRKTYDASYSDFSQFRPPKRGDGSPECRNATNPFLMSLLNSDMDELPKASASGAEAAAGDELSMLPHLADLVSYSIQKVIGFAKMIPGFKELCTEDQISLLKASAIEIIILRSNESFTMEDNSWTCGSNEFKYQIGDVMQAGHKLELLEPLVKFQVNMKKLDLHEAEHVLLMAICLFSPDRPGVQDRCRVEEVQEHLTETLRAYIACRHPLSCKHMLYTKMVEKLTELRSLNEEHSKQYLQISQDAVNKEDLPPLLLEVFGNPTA

[3] = target: T3, Xenopus laevis VDR (Xenopus laevis, UniProt O13124); test: luciferase reporter transactivation assay in HepG2-NTCP cells, GAL4/xlVDR LBD chimera with tk-UAS-Luc; settings: screening for activators, at least three concentrations of each drug
T3 sequence (O13124 90-422): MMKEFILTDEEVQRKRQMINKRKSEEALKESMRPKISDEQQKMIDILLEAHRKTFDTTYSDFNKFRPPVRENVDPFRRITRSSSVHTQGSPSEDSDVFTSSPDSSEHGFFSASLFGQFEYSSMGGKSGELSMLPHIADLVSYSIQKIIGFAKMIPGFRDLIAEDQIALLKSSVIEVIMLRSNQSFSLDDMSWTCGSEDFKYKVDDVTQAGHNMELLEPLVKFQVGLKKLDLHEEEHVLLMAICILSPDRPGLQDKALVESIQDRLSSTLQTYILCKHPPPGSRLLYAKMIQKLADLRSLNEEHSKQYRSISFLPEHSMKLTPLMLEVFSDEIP

[4] = screening for activators, at least three concentrations of each drug

CC1=C(/C=C/C(C)=C/C=C/C(C)=C/C(=O)O)C(C)(C)CCC1 [All trans retinoic acid]
No effect: Effect on zebrafish VDR [1] | Effect on sea lamprey VDR [2, 4] | Effect on Xenopus laevis VDR [3]

C[C@H](CCC(=O)O)[C@H]1CC[C@H]2[C@@H]3[C@H](O)C[C@H]4C[C@H](O)CC[C@]4(C)[C@H]3C[C@H](O)[C@]12C [Allocholic acid]
No effect: Effect on zebrafish VDR [1] | Effect on sea lamprey VDR [2, 4] | Effect on Xenopus laevis VDR [3]

Cc1c(C)c2c(c(C)c1O)CC[C@@](C)(CCC[C@H](C)CCC[C@H](C)CCCC(C)C)O2 [Alpha-tocopherol]
No effect: Effect on zebrafish VDR [1] | Effect on sea lamprey VDR [2, 4] | Effect on Xenopus laevis VDR [3]

C[C@]12CC[C@@H](O)C[C@@H]1CC[C@@H]1[C@@H]2CC[C@]2(C)C(=O)CC[C@@H]12 [Androsterone]
No effect: Effect on zebrafish VDR [1] | Effect on sea lamprey VDR [2, 4] | Effect on Xenopus laevis VDR [3]

CC(C)(c1ccc(OCC2CO2)cc1)c1ccc(OCC2CO2)cc1 (stereo not drawn) [BADGE]
No effect: Effect on zebrafish VDR [1] | Effect on sea lamprey VDR [2, 4] | Effect on Xenopus laevis VDR [3]

CC1=C(/C=C/C(C)=C/C=C/C(C)=C/C=C/C=C(C)/C=C/C=C(C)/C=C/C2=C(C)CCCC2(C)C)C(C)(C)CCC1 [Beta-carotene]
No effect: Effect on zebrafish VDR [1] | Effect on sea lamprey VDR [2, 4] | Effect on Xenopus laevis VDR [3]

CC[C@H](CC[C@@H](C)[C@H]1CC[C@H]2[C@@H]3CC=C4C[C@@H](O)CC[C@]4(C)[C@H]3CC[C@]12C)C(C)C [Beta-sitosterol]
No effect: Effect on zebrafish VDR [1] | Effect on sea lamprey VDR [2, 4] | Effect on Xenopus laevis VDR [3]

Cc1cc(O)c(C)c2c1O[C@](C)(CCC[C@H](C)CCC[C@H](C)CCCC(C)C)CC2 [Beta-tocopherol]
No effect: Effect on zebrafish VDR [1] | Effect on sea lamprey VDR [2, 4] | Effect on Xenopus laevis VDR [3]

CC(C)(Oc1ccc(CCNC(=O)c2ccc(Cl)cc2)cc1)C(=O)O [Bezafibrate]
No effect: Effect on zebrafish VDR [1] | Effect on sea lamprey VDR [2, 4] | Effect on Xenopus laevis VDR [3]

Clc1ccc(-c2nc3sccn3c2/C=N/OCc2ccc(Cl)c(Cl)c2)cc1 [CITCO]
No effect: Effect on zebrafish VDR [1] | Effect on sea lamprey VDR [2, 4] | Effect on Xenopus laevis VDR [3]

CC(C)[C@H](C)CC[C@@H](C)[C@H]1CC[C@H]2[C@@H]3CC=C4C[C@@H](O)CC[C@]4(C)[C@H]3CC[C@]12C [Campesterol]
No effect: Effect on zebrafish VDR [1] | Effect on sea lamprey VDR [2, 4] | Effect on Xenopus laevis VDR [3]

C[C@H](CCC(=O)O)[C@H]1CC[C@H]2[C@@H]3[C@H](O)C[C@@H]4C[C@H](O)CC[C@]4(C)[C@H]3CC[C@]12C [Chenodeoxycholic acid]
No effect: Effect on zebrafish VDR [1] | Effect on sea lamprey VDR [2] | Effect on Xenopus laevis VDR [3]

CC(C)CCC[C@@H](C)[C@H]1CC[C@H]2[C@@H]3CC=C4C[C@@H](OS(=O)(=O)O)CC[C@]4(C)[C@H]3CC[C@]12C [Cholesteryl sulfate (5-cholesten-3b-ol), Cholesteryl sulfate]
No effect: Effect on zebrafish VDR [1] | Effect on sea lamprey VDR [2, 4] | Effect on Xenopus laevis VDR [3]

CC1(COc2ccc(CC3SC(=O)NC3=O)cc2)CCCCC1 (stereo not drawn) [Ciglitazone]
No effect: Effect on zebrafish VDR [1] | Effect on sea lamprey VDR [2, 4] | Effect on Xenopus laevis VDR [3]

CC(C)(Oc1ccc(Cl)cc1)C(=O)O [Clofibric acid]
No effect: Effect on zebrafish VDR [1] | Effect on sea lamprey VDR [2, 4] | Effect on Xenopus laevis VDR [3]

Clc1ccccc1C(c1ccccc1)(c1ccccc1)n1ccnc1 [Clotrimazole]
No effect: Effect on zebrafish VDR [1] | Effect on sea lamprey VDR [2, 4] | Effect on Xenopus laevis VDR [3]
